Data on ten compounds can be found in patent US9061054B2, “ErbB-2 receptor targeting peptide” (The Curators of The University of Missouri, priority 2002, dated 2015).

For series [1] the following is noted: oral radioactive lomustine, about 30 mg/m^2 to 100 mg/m^2; cited from earlier work.
The target in series [2] is T1, ErbB-2-ECD (Homo sapiens, UniProt P04626). As to conditions: 6.25-50 ng protein on nitrocellulose; biotinylated peptide, 2 hrs RT.
Experimental: Immunoblot analysis of binding activity of the p6.1 peptide. […] After washing three times with PBS, the membrane was incubated with 100 μg biotinylated peptide for 2 hrs at RT.
Binding activity of p6.1 peptide. The binding specificity of synthetic p6.1 peptide to recombinant ErbB-2-ECD was examined by immunoblot and ELISA procedures. Immunoblot analysis was performed to compare the binding activity of the p6.1 peptide to ErbB-2-ECD and several other non-ErbB-2 related proteins. Purified recombinant ErbB-2-ECD as well as BSA, bovine asialofetuin, and human IgG were spotted on a nitrocellulose membrane at various amounts and exposed to the biotinylated p6.1 peptide.
Series [3] addresses T1, ErbB-2-ECD. Kind of series: Affinity selection of phage display library. Format: binding. Further details: Purification and characterization of the recombinant extracellular domain of ErbB-2; made in house. To be noted: 100 clones sequenced after four rounds of affinity selection; F3-6 library. As for the experimental part: Affinity Selection. […] Biotinylated antigen was incubated with streptavidin coated plates for 2 hours at 4° C. In first and second round of selection 10 μg of biotinylated antigen per plate was added, in third round amount of antigen was decreased to 1 μg, and for fourth round of selection 0.1 μg of antigen was used. Unoccupied biotin-binding sites were blocked with 0.1 mM biotin. Phage was incubated with antigen for 4 hrs at RT. Plates were washed 10 times with TPBS to remove unbound phage. Bound phage was eluted with elution buffer (0.1 M HCl, pH is adjusted to 2.2 with glycine, 1 mg/ml BSA, 0.1 mg/ml phenol red) at RT during 10 min. […] After each round, except the last, the eluate of the bound phage was propagated and used as input for the next round. Individual clones were characterized by DNA sequencing after the fourth round of selection.
A random 6-amino acid peptide bacteriophage display library was affinity selected against the ErbB-2-ECD to identify novel peptide-ligands.

The target in the next series is T2, soluble ErbB-2-ECD (Homo sapiens, UniProt P04626).
T2 construct: Purification and characterization of the recombinant extracellular domain of ErbB-2; made in house
Nature of the series: Fluorescence quenching titration of ErbB-2-ECD. Format: binding. To be noted: saturation conditions; excited at 300 nm, monitored at 350 nm. How it is done:
Fluorescence assay. The fluorescence titration studies were carved out using a SLM Aminco spectrofluorometer interfaced to a DEL 433/L PC running SLM Aminco 8100 series 2 software. The titrations were performed at 25° C. with varying amounts of peptide added to a fixed ErbB-2-ECD concentration (200-600 nM) in 2 ml of phosphate buffered saline (pH=7.4). Each measurement was collected for 5-20 sec after 1-2 min pre-equilibration. The excitation shutter remained closed during pre-equilibration of the sample and was opened only during data acquisition in order to minimize photobleaching of the sample. The fluorescence measurements were corrected for dilutions and photobleaching of ErbB-2-ECD. Values reported are an average of three independent measurements. […]
Fluorescence quenching studies were performed in order to evaluate the equilibrium dissociation constant of p6.1 to the soluble Erb-2-ECD. Intrinsic tryptophan fluorescence of the protein was monitored as a function of peptide concentration. Since p6.1 peptide contains a tyrosine residue, samples were excited at 300 nm and monitored at 350 nm to minimize the influence of tyrosine emission on tryptophan fluorescence. […] Theoretical curves were generated for the percentage of fluorescence quenching as a function of total peptide concentration (FIG. 2C).

Series [4] addresses T3, ErbB-1 receptor from human carcinoma A431 cells (Homo sapiens, UniProt P00533).
T3 construct: ErbB-1 receptor from human carcinoma A431 cells; purchased Sigma #E-2645; host or cells: A431 human carcinoma cells (endogenous receptor, isolated by the vendor)
Kind of series: ELISA, immobilized ErbB-1. Format: binding. To be noted: 100 ng protein per well; biotinylated peptide in 1:2 serial dilutions; OD 405 nm. (ELISA stands for enzyme-linked immunosorbent assay.)

In series [5] the test system is BSA, bovine asialofetuin, and human IgG. Nature of the series: Immunoblot analysis, control proteins. Type of series: binding. As to conditions: 6.25-50 ng on nitrocellulose, biotinylated peptide. The source says:
Binding activity of p6.1 peptide.
In general terms: A western blot detects proteins with antibodies after separation by electrophoresis.

For series [6], the target named is T1, ErbB-2-ECD. Kind of series: ELISA, immobilized ErbB-2-ECD.
Experimental: ELISA. […] Wells were subsequently incubated with biotinylated peptide added to the wells by serial dilutions (1:2) at RT for 2 hr. […] The pNPP reaction was stopped with 3M NaOH. Optical density was measured at 405 nm in a microplate reader. All assays were performed at least three times in triplicate wells. Values are reported as an average of absorbence ±SD.
The conditions of series [7]: cited from earlier work; for plasma protein binding: in vivo.
The test system of series [8] is T-24 human bladder carcinoma cells. Kind of series: Direct cell binding assay, T-24 (negative control). Format: cell-based. To be noted: biotinylated peptide 100 μM, antibody 1:100. How it is done:
(§1) Cell Binding Assay. DU-145 (human prostate adenocarcinoma), MDA-MB-435 (human breast carcinoma), and T-24 (human bladder carcinoma) cells were grown directly on the same microscope slide using a 4 well Lab-Tek II chamber slide system (Nalge Nunc). When cultures reached approximately 60-70% confluence, the cells were briefly washed with PBS, fixed with 4% formaldehyde solution in PBS for 30 min but not permeabilized, and preblocked for 1 hr with 2% bovine serum albumin (BSA) solution in PBS at 37° C. The cultivation chambers were removed and cells were incubated for 2 hr with solution of Neu (9G6) anti-ErbB-2 mouse monoclonal antibody (Santa Cruz Biotechnology) diluted 1:100 and biotinylated peptide (100 μM) in 2% solution BSA in PBS. The slides were washed three times with PBS followed by 1 hr incubation with Lissamine Rhodamineconjugated donkey anti-mouse IgG (Jackson ImmunoResearch Laboratories) and streptavidin-AMCA-S conjugate (Molecular Probes) in 2% BSA in PBS. After additional washes with PBS, the slides were mounted and analyzed by fluorescent microscopy using Rhodamine and UVA filter sets.
Direct Cell Binding Assay. The ability of the p6.1 to recognize cultured human cancer cells expressing native conformation of the ErbB-2 was examined. High levels of ErbB-2 expression on DU-145 human prostate carcinoma cells has been reported previously (Zhau et al., 1992). […]

Series [9] has as its system MDA-MB-435 human breast carcinoma cells. Kind of series: Direct cell binding assay, MDA-MB-435. Format: cell-based. As to conditions: fixed, non-permeabilized cells; biotinylated peptide 100 μM; antibody 1:100. How it is done:
as §1, with “DU-145 (human prostate adenocarcinoma), MDA-MB-435 (human breast carcinoma), and T-24 (human bladder carcinoma) cells were grown directly on the same microscope slide using a 4 well Lab-Tek II chamber slide system (Nalge Nunc).” left out
(§2) Direct Cell Binding Assay. The ability of the p6.1 to recognize cultured human cancer cells expressing native conformation of the ErbB-2 was examined.

In series [10] the test system is DU-145 human prostate carcinoma cells. Kind of series: Direct cell binding assay, DU-145. Format: cell-based. As to conditions: fixed, non-permeabilized cells; biotinylated peptide 100 μM; antibody 1:100. How it is done:
as §1, with “DU-145 (human prostate adenocarcinoma), MDA-MB-435 (human breast carcinoma), and T-24 (human bladder carcinoma) cells were grown directly on the same microscope slide using a 4 well Lab-Tek II chamber slide system (Nalge Nunc).” left out
as §2

The conditions of series [11]: cited from earlier work.
A further series concerns multiple myeloma. To be noted: oral administration; cited from earlier work.
The conditions of series [12]: in vivo; cited from earlier work.

Numbered stars: 1 amine (or outer) side, 2 acyl side, 3 side chain; on linkers, the order of the positions; unused ones are H or OH. Bridge positions count the residues as written; N and C are the ends. Square brackets hold non-standard residues; d marks the D form. Ends that are not written are not given here. Peptide text beside a SMILES is read from it. I, II: the chains in the order shown. Actinocin(9to1) = Cc1c2oc3c(C)ccc(C(=O)[*:1])c3nc-2c(C(=O)[*:2])c(N)c1=O; NMeV = CN[C@H](C(=O)O)C(C)C; Sar = CNCC(=O)O

Consider `O=NN(CCCl)C(=O)NC1CCCCC1` [Lomustine, 1-(2-chloro-ethyl)-3-cyclohexyl-1 nitrosourea], for which the “radioactivity excreted as degradation products within 24 hours” value in series [1] is “about half”.
For the compound KCCYSL [p6.1], the “binding to immobilized ErbB-2-ECD (immunoblot)” value on ErbB-2-ECD [2] is “bound only ErbB-2”. In addition, the “% Of Clones” value on ErbB-2-ECD [3] turned out to be 75%. The “maximum quenching of tryptophanyl fluorescence” value at soluble ErbB-2-ECD is reported as 20%. In series [4], the “binding activity to ErbB-1 protein (ELISA)” value is reported as “significant dose dependent binding activity”. For the same compound, the “reaction with control proteins (immunoblot)” value in series [5] was “did not react”. The “binding activity to ErbB-2-ECD (ELISA)” value on ErbB-2-ECD [6] (100 ng protein per well, biotinylated peptide in 1:2 serial dilutions, OD 405 nm) is on record as “significant dose dependent binding activity”. Moreover, the “competition with Neu (9G6) antibody for the same binding site on the extracellular domain” value at ErbB-2-ECD [6] (experimental ELISA data) is given as “do not compete”.
In the case of `CC[C@]1(O)C[C@H]2CN(CCc3c([nH]c4ccccc34)[C@@](C(=O)OC)(c3cc4c(cc3OC)N(C=O)[C@H]3[C@@](O)(C(=O)OC)[C@H](OC(C)=O)[C@]5(CC)C=CCN6CC[C@]43[C@@H]65)C2)C1` [vincristine], in [7], the plasma protein binding result is “bind to plasma proteins” and the “absorption after oral administration” value is on record as “Unpredictable absorption”.
On to WYSWLL [p6.3], for which, in the series with ErbB-2-ECD [3], the “% Of Clones” value came out at 10%.
Regarding “biotinylated p6.1: biotinylated analog of the p6.1 peptide KCCYSL, chemically synthesized (cysteine pairing not given here; also: biotinylated, place not given here)”, the “binding to T-24 cells (fluorescent microscopy)” value in series [8] is on record as “Neither the Neu (9G6) anti-ErbB-2 antibody, nor the biotinylated p6.1 bound”. The “binding to MDA-MB-435 cells (fluorescent microscopy)” value in [9] is given as “bound”. In addition, in series [10], the “binding to DU-145 cells (fluorescent microscopy)” value is reported as “bound”.
`CC[C@]1(O)C[C@@H]2CN(CCc3c([nH]c4ccccc34)[C@@](C(=O)OC)(c3cc4c(cc3OC)N(C)[C@H]3[C@@](O)(C(=O)OC)[C@H](OC(C)=O)[C@]5(CC)C=CCN6CC[C@]43[C@@H]65)C2)C1` [vinblastine]: in [7], the plasma protein binding result is “bind to plasma proteins” and the “absorption after oral administration” value was “Unpredictable absorption”.
Consider WYAWML [p6.2], for which, in the series with ErbB-2-ECD [3], the “% Of Clones” value came out at 8%.
For `O=NN(CCCl)C(=O)NCCCl` [Carmustine, 1,3 bis(2-chloroethyl)-1-nitrosourea], the “solubility in water” value in [11] was “poorly soluble”.
For `N[C@@H](Cc1ccc(N(CCCl)CCCl)cc1)C(=O)O` [Melphalan], the “patients with multiple myeloma showing a favorable response” value in the series with multiple myeloma was “one third to one half”.
For the compound `Cc1c2oc3c(C)ccc(C(=O)N[C@@H]4C(=O)N[C@H](C(C)C)C(=O)N5CCC[C@H]5C(=O)N(C)CC(=O)N(C)[C@@H](C(C)C)C(=O)O[C@@H]4C)c3nc-2c(C(=O)N[C@@H]2C(=O)N[C@H](C(C)C)C(=O)N3CCC[C@H]3C(=O)N(C)CC(=O)N(C)[C@@H](C(C)C)C(=O)O[C@@H]2C)c(N)c1=O` [Actinomycin D] (I: T[dV]P[Sar][NMeV] / II: T[dV]P[Sar][NMeV]; ester I:1-I:C, II:1-II:C; linker I:N-II:N via Actinocin(9to1)), the “passage of the blood-brain barrier” value in series [12] is “does not pass”.
